According to US9877938B2 (priority 2014, dated 2018):

Tests used:
plasma [1] = assay: Anticoagulant activity: prothrombin time (PT), Sysmex CA-1500; assay type: biochemical, human; conditions: 20 μl sample + 80 μl plasma, test material g/dL as in label, Asp 7.5 mg/ml, N=3
Method: (§1) Antithrombotic (anticoagulant) activity was evaluated according to a previously reported method. Each of thromborel S, actin and thrombin, which are reagents for Sysmex CA-1500 for analysis of PT, aPTT and TT, was mounted in Sysmex CA-1500 (Siemens Healthcare, Germany) which is an automated blood coagulation test device. According to the automated procedure of the test device, clotting time (sec) (prothrombin time (PT), activated partial thromboplastin time (aPTT) and thrombin time (TT)) was measured. A sufficient amount of a sample for each of the three analyses was about 400 uL of an 80:20 mixture of plasma and a test substance.
(§2) The isolated plasma was used in an experiment in a fresh state within 5-6 hours.
(§3) In this experiment, for the relative comparison of the measured clotting time (sec) (PT, aPTT and TT) between test groups, clotting time prolongation (%) relative to triple distilled water (purified water) that is a normal control test sample was statistically analyzed. For statistical analysis, the […] anticoagulant activities of test materials were comparatively analyzed using SPSS IBM version 21.0 by one-way ANOVA at p<0.05, and significance comparison between groups was performed by Duncan's test.
The aspirin solution was immediately used at room temperature in a light-shielded state or was cold-stored.
As a control, aspirin was used, and as a vehicle control, triple distilled water (purified water) was used instead of the sample.

plasma [2] = assay: Anticoagulant activity: activated partial thromboplastin time (aPTT), Sysmex CA-1500; assay type: biochemical, human; conditions: Table 4; 20 μl sample + 80 μl plasma; test material g/dL as in label; Asp 7.5 mg/ml; N=3
Method: as §1, §2, §3
The aspirin solution was immediately used at room temperature in a light-shielded state or was cold-stored. […]

[3] = test system: male mice (C57BL/6) fed high-fat diet; assay: Body weight and body weight gain of high-fat diet mice; assay type: in vivo; conditions: for Body weight gain, Mean: HFD mice, metformin 250 mg/kg; for Body weight gain: mean; for body weight gain compared to high-fat diet (HFD) alone (in words): at 8 weeks after HFD feeding
Method: (§4) Using 8-week-old male mice (C57BL/6) (purchased from CoreTech), anti-diabetic candidate materials were evaluated using a GTT (Glucose Tolerance Test) that is a typical method for diagnosis of diabetes.
(§5) Mice were housed at a temperature of 22±2° C. and a relative humidity of 55-60% with 12-hr light/12-hr dark cycles. Five animals were allotted to each group, and mice from the same mother were grouped into one group, because male mice tend to fight together.
(§6) As feed, high-fat diet (60% of calories from fat; Research Diet Inc., New Brunswick, N.J.) and water were fed ad libitum for 10 weeks. Herein, the water fed contained the samples prepared in Examples 1-2 (3), 2-1, 2-4-1, 2-4-2 and 2-5. As a positive control, metformin (M-072, Sigma) (250 mg/kg) was used, and as a control, the samples prepared in Comparative Examples 1-1, 2-3-2, 2-5-1, 2-5-2 and 2-6 were used.
(§7) For reference, each of the samples prepared in Examples 2-4-1, 2-4-2 and 2-5 was set to the amount to be taken by an adult (60 kg) for 3 days, and the amount was converted into a mouse dose (12-fold/kg, see the US NIH guidance), thereby preparing animal feed. Namely, the amount to be taken by an adult (60 kg) for 3 days is 180-day dose/kg, which corresponds to 15-day dose/kg for mice. Thus, the amount corresponds to 750-day dose/mouse (20 g), because the average weight of mice is about 20 g. Thus, one mouse was allowed to take 1/750 of the prepared sample each day.
(§8) In addition, each of the samples prepared in Examples 1-2 (3) and 2-1 was set to the amount to be taken by an adult (60 kg) for 2 days, and the amount was converted into a mouse dose (12-fold/kg, see the US NIH guidance), thereby preparing animal feed. Namely, the amount to be taken by an adult (60 kg) for 2 days is 120-day dose/kg, which corresponds to 10-day dose/kg for mice. Thus, the amount corresponds to 500-day dose/mouse (20 g), because the average weight of mice is about 20 g. Thus, one mouse was allowed to take 1/500 of the prepared sample each day.
The diet intake and the body weight gain were measured weekly for 8 weeks. The body weight and the diet intake were measured immediately before first drug administration, and then measured at one-week intervals.
(§9) Meanwhile, experimental analysis results were expressed as mean±S.E.M., and the significance between test groups was statistically processed using Student T-TEST, and then the significance was verified at *P<0.05.

[4] = test system: male mice (C57BL/6) fed high-fat diet; assay: Glucose tolerance test (GTT) in high-fat diet mice; assay type: in vivo; conditions: for fasting glucose level (in words) / glucose control ability in GTT compared with HFD alone (in words): 8 weeks of HFD; for fasting glucose level (in words): 8 h fasting, compared with HFD alone, normal mice or other group; for glucose control ability in GTT compared with HFD alone (in words): glucose 1 g/kg i.p.; for Glucose level: mean
Method: as §4, §5, §6, §7, §8
At 8 weeks of high-fat diet feeding, a glucose tolerance test (GTT) was performed. For 8 hours for the test, mice were fasted. Then, blood was sampled from the tail vein, and initial blood glucose levels were measured with a blood glucose meter (AUTO-CHEK, Diatech Korea). Then, glucose was administered intraperitoneally to the mice at a concentration of 1 g/kg, and after 30 min, 60 min, 90 min and 120 min, blood was sampled from the mice, followed by measurement of blood glucose levels (each group consisting of five animals).
as §9

[5] = test system: male mice (C57BL/6) fed high-fat diet; assay: Blood biochemistry (triglyceride, AST, ALT) in high-fat diet mice; assay type: in vivo
Method: as §6, §7, §8
In blood biochemistry, insulin (AKRIN-011T, Shibayagi, Japan), glucose (AM202, Asan Pharmaceutical Co., Ltd., Korea), triglyceride (AM157, Asan Pharmaceutical Co., Ltd.), total cholesterol (AM202, Asan Pharmaceutical Co., Ltd.), AST and ALT (Asan Pharmaceutical Co., Ltd.) were analyzed using enzymatic assay kits.
(§10) At 10 weeks of high-fat diet feeding, the mice were sacrificed by cervical dislocation to obtain serum. For histological examination, the liver, white adipose tissue (WAT), brown adipose tissue (BAT) and kidney were fixed with formalin (50-00-0, Junsei, Japan), and the remaining organs were stored at −70° C. The blood sampled from the heart was coagulated to obtain serum which was then stored at −70° C.
as §9

[6] = test system: male mice (C57BL/6) fed high-fat diet; assay: Histological examination of liver, WAT, BAT and kidney; assay type: in vivo; conditions: HFD mice, 10 weeks
Method: as §6, §10
For histological examination, the major organs and adipose were fixed in 4% neutral buffered formalin and embedded in paraffin blocks, and the paraffin blocks were sectioned at 5 μm and stained with hymatoxylin (MHS-16, Sigma-Aldrich, USA) and eosin (HT110116, Sigma-Aldrich). The prepared tissue samples were mounted in glycerin gel mounting media (SP15-100, Fisher Scientific, USA), covered with cover glass, and observed with a microscope (IX71, OLYMPUS, USA). The tissue was imaged with the camera equipped in the microscope.

[7] = 8 weeks, sample in drinking water (1/500 per day), Tables 6, 9, 12
[8] = HFD mice serum, compared with reference diet, HFD or other group

SMILES: CC(=O)Oc1ccccc1C(=O)O [Asp, aspirin]
- PT clotting time prolongation relative to purified water, Mean (plasma [1]; Table 2): 9.90%

SMILES: O=C(CO)[C@@H](O)[C@H](O)[C@H](O)CO [Fruc 12.4, fructose]
- PT clotting time prolongation relative to purified water, Mean (plasma [1]; Table 4): 0.54%
- aPTT clotting time prolongation relative to purified water, Mean (plasma [2]): 0.58%

SMILES: CN(C)C(=N)N=C(N)N [Metformin, metformin]
- Body weight gain, Mean ([3]; 1 week, Table 15 experiment, sample in drinking water (1/750 per day)): 2.445 g
- Body weight gain ([3]; 2 weeks): 2.503 g
- Body weight gain ([3]; 3 weeks): 4.020 g
- Body weight gain, Mean ([3]; 4 weeks, Table 15 experiment, sample in drinking water (1/750 per day)): 4.600 g
- Body weight gain ([3]; 4 weeks): 4.600 g
- Body weight gain ([3]; 5 weeks): 6.093 g
- Body weight gain ([3]; 6 weeks): 7.250 g
- Body weight gain ([3]; 7 weeks): 6.263 g
- Body weight gain, Mean ([3]; 8 weeks, Table 15 experiment, sample in drinking water (1/750 per day)): 8.238 g

SMILES: NCCS(=O)(=O)O [DT15]
- Body weight gain, Mean ([3]; 2 weeks, sample in drinking water (1/500 per day), Tables 6, 9, 12): 4.40 g
- Body weight gain, Mean [3, 7]: 11.58 g
- body weight gain compared to high-fat diet (HFD) alone (in words) [3]: significant reduction in body weight gain
- fasting glucose level (in words) [4]: lower than that of the mice administered with high-fat diet (HFD), and were similar to the blood glucose levels of normal mice
- glucose control ability in GTT compared with HFD alone (in words) [4]: significantly higher than that of the group administered with HFD alone
- Glucose level ([4]; GTT 0 min (fasting)): 121.25 mg/dL
- Glucose level ([4]; GTT 30 min): 335.25 mg/dL
- Glucose level ([4]; GTT 60 min): 295.25 mg/dL
- Glucose level ([4]; GTT 90 min): 193.75 mg/dL
- Glucose level ([4]; GTT 120 min): 126.25 mg/dL
- triglyceride level (in words) ([5]; HFD mice serum, compared with normal/reference diet or other group): significantly lower than that of DT19
- ALT level (in words) [5, 8]: lower than those of DT19
- AST level (in words) [5, 8]: lower than those of DT19
- ALT level ([5]; blood, mean): 14.02 IU/L
- AST level ([5]; blood, mean): 98.96 IU/L
- Triglyceride level ([5]; blood, mean): 53.62 mg/dL
- accumulation of adipose in brown adipose tissue (histology) [6]: decreased
- development of fatty liver (histology) [6]: decreased
- nephrotoxicity (histology) ([6]; kidney): did not appear

SMILES: O=C(CO)[C@@H](O)[C@H](O)[C@H](O)CO [Fruc 6.2, fructose]
- PT clotting time prolongation relative to purified water, Mean (plasma [1]; Table 4): 0.54%
- aPTT clotting time prolongation relative to purified water, Mean (plasma [2]): −0.20%

SMILES: NCCS(=O)(=O)O [DT19, taurine, reference compound]
- Body weight gain, Mean [3, 7]: 9.52 g
- body weight gain compared to high-fat diet (HFD) alone (in words) [3]: significant reduction in body weight gain
- fasting glucose level (in words) [4]: lower than that of the mice administered with high-fat diet (HFD), and were similar to the blood glucose levels of normal mice
- glucose control ability in GTT compared with HFD alone (in words) [4]: significantly higher than that of the group administered with HFD alone
